Some results are limits rather than exact numbers.

For seven molecules, CC50 and EC50 results are on record in US9724351B2, “Compounds for the treatment of paramoxyvirus viral infections” (priority 2012, dated 2017).

The nature of series [1]: Cytotoxicity Determination. In kind it is cell-based. The conditions noted are these: human, HEp-2 cells, without addition of virus, CCK-8 readout, bins (Table 4: greater than 100 μM; Table 5: equal to or less than 100 μM and greater than 10 μM), read-out: 50% cytotoxicity concentration (CC50). In outline: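 Uninfected cells were exposed to compounds in duplicate over a 7-point ½ dilution series starting at 100 μM final, for 5 days at 37 °C, 5% CO2. CCK-8 was then added for 3-4 h, and CC50 was calculated from optical density.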

For series [2], the system named is Respiratory Syncytial Virus (RSV) long strain (ATCC#VR-26). Kind of series: RSV Antiviral Assay (CPE reduction assay). In kind it is cell-based. Particulars: human respiratory syncytial virus, 120 h; HEp-2 cells infected with RSV long strain, 5 days, CCK-8 readout; bins (Table 2: less than 1 μM; Table 3: equal to or higher than 1 μM and less than 50 μM); read-out: 50% effective concentration (EC50). In outline:
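HEp-2 cells infected with 100 TCID50 RSV long strain per well, compounds from 100 μM or 1 μM in 9-point ⅓ dilutions, duplicates, 1% DMSO. After 5 days at 37 °C, viable cells measured by CCK-8 (A450, 630 nm background); EC50 by regression on mean O.D.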

Consider `COc1cc(C(=O)NCC(=O)c2cc(CO)cc(-c3ccc(F)c(Cl)c3)n2)ccc1OCC1CC1` [Compound 3800], for which the CC50 at 5 days in series [1] lay within 10 to 100 µM. In addition, the EC50 in series [2] was under 1000 nM.
On the same counts, the results for `COc1cc(C(=O)NCC(=O)N2CCN(c3ccc(F)c(Cl)c3)C2=O)ccc1OCCO` [Compound 3900] are over 100 µM and 1000 to 50000 nM.
On the same counts, the results for `COc1cc(C(=O)NCC(=O)c2ccc(OC)c(-c3ccc(F)c(Br)c3)n2)ccc1OCc1ncn[nH]1` [Compound 3903] are over 100 µM and under 1000 nM.
The like results for `COc1cc(C(=O)NCC(=O)c2ccc(OC)c(-c3c(C)[nH]c4c(F)cccc34)n2)ccc1OCCO` [Compound 4002] were, in that order, 10 to 100 µM and under 1000 nM.
Take `COc1ccc(C(=O)CNC(=O)c2cc(C)on2)nc1-c1ccc(F)c(Cl)c1` [Compound 4202]: in series [1], the CC50 at 5 days is over 100 µM. Besides, the EC50 in series [2] is 1000 to 50000 nM.
Consider `COc1ccc(C(=O)CNC(=O)c2ccnc(C)c2)nc1-c1ccc(F)c(Cl)c1` [Compound 4204], for which the CC50 at 5 days in series [1] is over 100 µM. For the same molecule, in series [2], the EC50 was 1000 to 50000 nM.
On the same counts, the results for `COc1ccc(C(=O)CNC(=O)c2ccncn2)nc1-c1ccc(F)c(Cl)c1` [Compound 4205] are over 100 µM and 1000 to 50000 nM.
